According to article PMC7848139, “Novel Hybrid CHC from β-carboline and N-Hydroxyacrylamide Overcomes Drug-Resistant Hepatocellular Carcinoma by Promoting Apoptosis, DNA Damage, and Cell Cycle Arrest” (Frontiers in Pharmacology, 2021):

Assays:
HCT116 = test: MTT antiproliferative assay, HCT116; assay type: cell-based; conditions: Homo sapiens, HCT-116, 72 h, mean ± SD of three experiments, read-out: In vitro antiproliferative activity (IC50) HCT116
Protocol: Briefly, appropriate cells (1 × 10^4 cells/mL) were placed into 96-well plates in 100 μL of DMEM medium overnight. Then adding 100 μL of evaluated compounds into individual well for 72 h while 0.1% DMSO aqueous solution was treated as the negative control. After incubation with 30 μl MTT (5 mg/mL) for 4 h in all well, and ELISA plate reader measured absorbance of each well at 570 nm. Then calculating cytotoxicity effect of evaluated compounds through the formula: Cell inhibitory percentage (%) = (1−OD of treatment group/OD of control) × 100%.

Bel7402/5-FU xenografts = test: In vivo tumor growth inhibition, Bel7402/5-FU xenograft; set-up: species or system BALB/c nude mice; conditions: intraperitoneal daily, 21 days
Protocol: All animal experimental protocols were approved by the Animal Research and Care Committee of Nantong University. Female BALB/c nude mice at 5∼6 week-old were subcutaneously implanted with 1×10^6 Bel7402/5-FU cells. […] The body mass and tumor size of nude mice were surveyed every three days during the 21 days study. Tumor size (mm^3) of nude mice was determined using the formula: tumor size = ½ (Length×Width^2). Finally, these tumor-bearing mice were sacrificed, and their tumors were removed and weighed at the end of the 21 days.
Data (means ± SD) were from tumor volumes or weight of each group of mice (n = 6 per group). *p < 0.01 vs. control group.

- IC50 (HCT116): 2050 ± 190 nM
SMILES: CN(C)c1ccc(-c2nc(C(=O)NCc3ccc(/C=C/C(=O)NO)cc3)cc3c2[nH]c2ccccc23)cc1 [CHC, (E)-N-(4-(3-(hydroxyamino)-3-oxoprop-1-en-1-yl)benzyl)-1-(4-dimethylaminophenyl)-9H-pyrido [3,4-b]indole-3-carboxamide]
- decrease of tumor mass compared to saline group (Bel7402/5-FU xenografts; 70 μmol/kg): 65 % (w/w)
- tumor mass at end of treatment (Bel7402/5-FU xenografts; 70 μmol/kg, n = 6, saline group 1.47 ± 0.21 g): 0.51 ± 0.08 g
- body mass change vs vehicle group (Bel7402/5-FU xenografts): no significant statistical difference
- xenograft hepatic tumor volume (Bel7402/5-FU xenografts): markedly diminished xenograft hepatic tumor volume
